The record followed here is ChEMBL document CHEMBL1201862, “PubChem BioAssay data set” (2004).

Some test systems named below: KM12; RXF 393; OVCAR-3; SR; HOP-92; NCI-H460; LOX IMVI; MDA-MB-435; CAKI-1; SF-268; SK-MEL-28; SK-MEL-2; MDA-N; UACC-62; RPMI-8226; NCI/ADR-RES; OVCAR-8; BT-549; MCF7.
Holding throughout (test): DTP human tumour cell line panel, 48 h

SMILES strings stand for the structures.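 Cells were grown in 96-well plates and exposed to each compound for 48 hours at five concentrations; endpoints were interpolated linearly between bracketing concentrations, or set to the highest concentration if not reached. Abbreviation: GI50, concentration required for 50% inhibition of growth.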 Active and inactive are the calls of the source. Rule as the data show it: active = GI50 up to about 1.1 µM and inactive = higher.

In the case of `NC(=O)NC(CC(=O)O)C(=O)O` (stereo not drawn), the GI50 with KM12, in the test with RXF 393, with OVCAR-3, in the test with SR, in the test on HOP-92 and with NCI-H460 was > 100 µM (inactive) each time. Also, the GI50 with LOX IMVI, in the test on MDA-MB-435, in the test with CAKI-1, in the test with SF-268, in the test on SK-MEL-28 and in the test on SK-MEL-2 was > 100 µM (inactive) in each case. Also, the GI50 with MDA-N, in the test on UACC-62, with RPMI-8226, in the test on NCI/ADR-RES, with OVCAR-8 and with BT-549 was > 100 µM (inactive) each time.

With `CC1=NN(c2nc(N)nc(/C(C#N)=C\c3csc([N+](=O)[O-])c3)n2)C(C)(C)C1`, the GI50 (commonly the concentration giving 50% growth inhibition) with KM12 is 57.9 µM (inactive); in the test on RXF 393, 20.6 µM (inactive); in the test with MCF7, 35.6 µM (inactive); in the test with OVCAR-3 it was 26.4 µM (inactive); in the test with SR it was 51.1 µM (inactive); in the test on HOP-92 it was 54.7 µM (inactive). Besides, the GI50 with NCI-H460 was 32.7 µM (inactive); with LOX IMVI, 71.3 µM (inactive); in the test on MDA-MB-435, 39.7 µM (inactive); in the test with CAKI-1, 44.5 µM (inactive); with SF-268, 21.8 µM (inactive); in the test with SK-MEL-28, 59 µM (inactive). The GI50 in the test on SK-MEL-2 is 28.9 µM (inactive); in the test with MDA-N, 27.7 µM (inactive); in the test on RPMI-8226 it was 35.6 µM (inactive); with NCI/ADR-RES, 27 µM (inactive); in the test on OVCAR-8 it was 25.1 µM (inactive).

With `COc1ccc(/C=C2\CN(C)C/C(=C\c3ccc(OC)cc3)C2=O)cc1`, the GI50 in the test with KM12, in the test on RXF 393, in the test with OVCAR-3, in the test on SR, with HOP-92 and with NCI-H460 was > 100 µM (inactive) each time. Besides, the GI50 in the test with LOX IMVI, in the test with MDA-MB-435, in the test with CAKI-1, in the test on SF-268, with SK-MEL-28 and in the test with SK-MEL-2 was > 100 µM (inactive) in each case. Further, the GI50 in the test with MDA-N, in the test with UACC-62, with RPMI-8226 and with NCI/ADR-RES was > 100 µM (inactive) in each case.

For the compound `CCOC(=O)N(c1ccccc1)c1cc(=O)n2ccccc2n1`, the GI50 in the test with KM12 was > 100 µM (inactive); with RXF 393, 38.9 µM (inactive); with MCF7, > 100 µM (inactive); in the test with OVCAR-3, > 100 µM (inactive); with SR, > 100 µM (inactive); in the test on NCI-H460, > 100 µM (inactive). The GI50 with LOX IMVI, in the test with MDA-MB-435, in the test on CAKI-1, with SF-268, in the test with SK-MEL-28 and with UACC-62 was > 100 µM (inactive) each time. For the same compound, the GI50 in the test with RPMI-8226, with NCI/ADR-RES, in the test on OVCAR-8 and in the test with BT-549 was > 100 µM (inactive) throughout.

For the compound `CC1CC(C)C(C#N)N(C)c2ccccc21` (stereo not drawn), the GI50 with KM12 was > 100 µM (inactive); in the test on RXF 393 it was 6.12 µM (inactive); in the test with MCF7, 81.3 µM (inactive); in the test on OVCAR-3 it was > 100 µM (inactive); in the test on SR it was 25.6 µM (inactive); with NCI-H460, > 100 µM (inactive). Also, the GI50 with MDA-MB-435 was 69.2 µM (inactive); in the test with CAKI-1 it was > 100 µM (inactive); in the test on SF-268, > 100 µM (inactive); in the test with SK-MEL-28, > 100 µM (inactive); with SK-MEL-2, > 100 µM (inactive); in the test with MDA-N, > 100 µM (inactive). Moreover, the GI50 in the test on UACC-62 was 97.5 µM (inactive); with RPMI-8226, 37.2 µM (inactive); in the test with NCI/ADR-RES it was > 100 µM (inactive); in the test with OVCAR-8, > 100 µM (inactive).

In the case of `C/C(=N\NC(N)=S)c1ccc(C)cc1C`, the GI50 was 60.8 µM (inactive) with KM12; 8.2 µM (inactive) with RXF 393; 75.7 µM (inactive) with OVCAR-3; < 0.01 µM (active) with SR; > 100 µM (inactive) in the test with HOP-92; 64.7 µM (inactive) with NCI-H460. The GI50 is > 100 µM (inactive) in the test with LOX IMVI; > 100 µM (inactive) in the test with CAKI-1; 37.2 µM (inactive) in the test on SK-MEL-2; 38.9 µM (inactive) in the test with UACC-62; > 100 µM (inactive) in the test on RPMI-8226; > 100 µM (inactive) in the test with OVCAR-8.

Turning to `O=C1CC2CC(CC3(CO3)C2)C1F` (stereo not drawn), the GI50 is > 100 µM (inactive) in the test with KM12; > 100 µM (inactive) with RXF 393; > 100 µM (inactive) with MCF7; > 100 µM (inactive) in the test on SR; 23 µM (inactive) in the test on HOP-92; > 100 µM (inactive) in the test on NCI-H460. For the same compound, the GI50 in the test with LOX IMVI, in the test on MDA-MB-435, with CAKI-1, in the test on SF-268, with SK-MEL-28 and in the test with SK-MEL-2 was > 100 µM (inactive) in each case. For the same compound, the GI50 in the test on MDA-N, in the test on UACC-62, with RPMI-8226, with NCI/ADR-RES and in the test with OVCAR-8 was > 100 µM (inactive) each time.

`O=c1[nH]c(=O)n(C2CC(O)C(COP(=O)(O)OC3CC(n4cc(F)c(=O)[nH]c4=O)OC3COP(=O)(O)OC3CC(n4cc(F)c(=O)[nH]c4=O)OC3COP(=O)(O)OC3CC(n4cc(F)c(=O)[nH]c4=O)OC3COP(=O)(O)OC3CC(n4cc(F)c(=O)[nH]c4=O)OC3COP(=O)(O)OC3CC(n4cc(F)c(=O)[nH]c4=O)OC3COP(=O)(O)OC3CC(n4cc(F)c(=O)[nH]c4=O)OC3COP(=O)(O)OC3CC(n4cc(F)c(=O)[nH]c4=O)OC3COP(=O)(O)OC3CC(n4cc(F)c(=O)[nH]c4=O)OC3COP(=O)(O)OC3CC(n4cc(F)c(=O)[nH]c4=O)OC3CO)O2)cc1F` (stereo not drawn): the GI50 with KM12 is 3.59 µM (inactive); in the test with RXF 393, 0.217 µM (active); in the test on MCF7, < 0.005 µM (active); in the test on SR, < 0.005 µM (active); with HOP-92, 0.0202 µM (active); in the test on NCI-H460, < 0.005 µM (active). Further, the GI50 with LOX IMVI is < 0.005 µM (active); in the test with MDA-MB-435, 0.422 µM (active); with CAKI-1, < 0.005 µM (active); in the test on SF-268, < 0.005 µM (active); in the test with SK-MEL-28 it was 0.286 µM (active); in the test on SK-MEL-2, 3.07 µM (inactive). The concentration for 50% growth inhibition (GI50) in the test with MDA-N was 0.0685 µM (active); in the test on UACC-62, < 0.005 µM (active); with RPMI-8226 it was 0.232 µM (active); in the test with NCI/ADR-RES it was < 0.005 µM (active); with OVCAR-8 it was < 0.005 µM (active).

For `O=C(O)[C@H]1[C@@H](C2CCCCC2)O[C@@H](C2CCCCC2)O[C@H]1C(F)(F)F`, the GI50 in the test with KM12 was 22.2 µM (inactive); in the test with RXF 393 it was 22.9 µM (inactive); in the test on OVCAR-3 it was 20.4 µM (inactive); with SR, 20.7 µM (inactive); with HOP-92, 18.8 µM (inactive); in the test with NCI-H460 it was 19.3 µM (inactive). For the same compound, the GI50 is 19.9 µM (inactive) with LOX IMVI; 19.4 µM (inactive) in the test on MDA-MB-435; 20.5 µM (inactive) in the test on CAKI-1; 20.2 µM (inactive) with SF-268; 19.4 µM (inactive) with SK-MEL-28; 16.9 µM (inactive) with MDA-N. Besides, the GI50 in the test on UACC-62 was 18.5 µM (inactive); in the test with RPMI-8226, 23.9 µM (inactive); in the test with NCI/ADR-RES, 40.6 µM (inactive); in the test on OVCAR-8, 22 µM (inactive); in the test on BT-549, 33.2 µM (inactive).

`COc1cccc(-c2cc(O)c3cc(NC(C)=O)ccc3n2)c1`: the GI50 in the test with KM12 was 23.5 µM (inactive); in the test on MCF7, 5.65 µM (inactive); in the test with SR, 2.34 µM (inactive); in the test with HOP-92, 8.17 µM (inactive); in the test with NCI-H460 it was 33 µM (inactive); with LOX IMVI, 22.5 µM (inactive). In addition, the GI50 with MDA-MB-435 was 3.8 µM (inactive); in the test with CAKI-1, 62.1 µM (inactive); in the test with SF-268, 6.3 µM (inactive); with SK-MEL-28 it was 33.2 µM (inactive); with UACC-62 it was 17.4 µM (inactive); with RPMI-8226, 42.9 µM (inactive). Further, the GI50 is 62.8 µM (inactive) in the test on NCI/ADR-RES, 25.6 µM (inactive) in the test with OVCAR-8 and > 100 µM (inactive) in the test with BT-549.

Consider `COc1cc(C(=O)O[C@H]2CCC3CCC2N3C)cc(OC)c1OC` (stereo partly drawn), for which the GI50 in the test on KM12 was > 100 µM (inactive); in the test with RXF 393 it was > 100 µM (inactive); with MCF7, > 100 µM (inactive); in the test on SR it was > 100 µM (inactive); in the test with HOP-92 it was 34.4 µM (inactive); with NCI-H460 it was > 100 µM (inactive). Moreover, the GI50 in the test on LOX IMVI, in the test on MDA-MB-435, with SF-268, in the test on SK-MEL-28, in the test with RPMI-8226 and in the test with NCI/ADR-RES was > 100 µM (inactive) throughout. Moreover, the GI50 with OVCAR-8 was > 100 µM (inactive).

`Clc1ccc(COC(Cn2ccnc2)c2ccc(Cl)cc2Cl)c(Cl)c1` (stereo not drawn) [MICONAZOLE NITRATE]: the GI50 is 13.3 µM (inactive) in the test on KM12; 14.7 µM (inactive) with MCF7; 9.86 µM (inactive) in the test with OVCAR-3; 12.6 µM (inactive) in the test on NCI-H460; 9.18 µM (inactive) in the test on LOX IMVI; 3.37 µM (inactive) in the test with MDA-MB-435. In addition, the GI50 in the test with CAKI-1 is 10.5 µM (inactive); with SF-268, 10.3 µM (inactive); in the test on SK-MEL-28, 12.7 µM (inactive); in the test with SK-MEL-2, 13.1 µM (inactive); with MDA-N, 3.89 µM (inactive); in the test with UACC-62, 10.2 µM (inactive). For the same compound, the values for the GI50 in the test on NCI/ADR-RES and in the test with OVCAR-8 were 4 µM (inactive) and 8.39 µM (inactive), respectively.
